Assay results from patent US20200345846A1, “CORROLE COMPOSITIONS” (TECHNION RESEARCH & DEVELOPMENT FOUNDATION LIMITED, priority 2017, published 2020).

Test system: DU-145 prostate cancer cell line
Assay: FACS analysis with annexin V-FITC kit (apoptosis)
Type: cell-based, human
Conditions: analysis after 4 h
Experimental: Cells (DU-145) were seeded in 6-well microtiter plates (5×10^4 cells/mL; 3 mL per well) 24 h before the addition of assigned compounds/albumin particles. At the time of drug treatment, stock solutions of compounds were diluted to 10-fold the desired final test concentrations with EMEM medium. Aliquots of 300 μL of these diluted solutions were added to the appropriate microtiter wells containing 2700 μL of medium, resulting in the required final drug concentrations (according to assigned concentration). The final concentration of DMSO (given that the compound required DMSO for solvation) in test culture was <1%. […] Following 24-72 h of exposure at 37° C., cells were re-suspended with trypsin into PBS pH 7.2 and pelleted at 3000 rpm for 5 min. Samples were washed under PBS×3 times. Samples were taken for measurement using a BD LSR-II Analyzer supported with BD FACSDiVa™ Software Version 6.1 for data analysis. Corrole fluorescence was measured using appropriate filters for excitation (405 nm, DAPI) and emission (Ds-RED). FIGS. 15A-F present FACS analysis of DU-145 prostate cancer cell line treated with an annexin V-FITC kit after 4 h incubation with: HSA control; FIGS. 15B-F present 5-Ga HSA NP's 2, 5, 10, 15, 20 μM respectively. […] Analysis of β-lapachone was done after 4 h since it induces apoptosis faster.

CC1(C)CCC2=C(O1)c1ccccc1C(=O)C2=O [Corrole 0-lapachone, β-lapachone]
shift of annexin V-FITC distribution curve: strong shift of the distribution curve towards stronger mean fluorescence
